Results taken from ChEMBL document CHEMBL1131952, “Synthesis of tetrasubstituted bicyclo[3.2.1]octenes as potential inhibitors of influenza virus sialidase” (Bioorg Med Chem Lett, 1999).

How the values were obtained:
[1] = test system: Influenza A virus; assay: Inhibitory activity against sialidase of influenza A; format: functional, organism-based
[2] = test system: Influenza B virus; assay: Inhibitory activity against sialidase of influenza B; format: functional, organism-based

| Compound | IC50 [1] | IC50 [2] |
| --- | --- | --- |
| CC(=O)N[C@H]1[C@H]([C@H](O)[C@H](O)CO)OC(C(=O)O)=C[C@@H]1O [NEU5AC2EN] | 2.8 µM | 3 µM |
| CCC(CC)O[C@@H]1C=C(C(=O)O)[C@@H]2CC[C@@]1(C(=O)O)[C@H]2O | > 670 µM | > 670 µM |
| CCC(CC)O[C@@H]1C=C(C(=O)O)[C@@H]2CC[C@@]1(C(=O)OC)[C@H]2O | 99 µM | 83 µM |
| CCC(CC)O[C@@H]1C=C(C(=O)O)[C@@H]2CC[C@@]1(NC(C)=O)[C@H]2O | 80 µM | 340 µM |
